Test results published in PMC12670405, “Second-Generation AURKA-Targeting PROTACs: Structural Optimization toward in Vivo Degradation in Neuroblastoma” (Journal of Medicinal Chemistry, 2025).

Key:
Assay in all cases: KINOMEscan scanMAX
Assay type in all cases: binding
[1] = target: T1, ANKK1 (Homo sapiens, UniProt Q8NFD2); settings: read-out: Percent Control
T1 construct: purchased Eurofins Discovery (DiscoverX KINOMEscan scanMAX)
Method: (§1) The kinome-wide binding assay was performed by Eurofins Discovery using the scanMAX screening platform. More information can be found on the Eurofins Discovery Web site.

[2] = target: T2, MST1R (Homo sapiens, UniProt Q04912); settings: read-out: Percent Control
T2 construct: purchased Eurofins Discovery (DiscoverX KINOMEscan scanMAX)
Method: as §1

[3] = target: T3, ABL2 (Homo sapiens, UniProt P42684); settings: read-out: Percent Control
T3 construct: purchased Eurofins Discovery (DiscoverX KINOMEscan scanMAX)
Method: as §1

[4] = target: T4, CDC2L1 (Homo sapiens, UniProt P21127); settings: read-out: Percent Control
T4 construct: purchased Eurofins Discovery (DiscoverX KINOMEscan scanMAX)
Method: as §1

[5] = target: T5, PKMYT1 (Homo sapiens, UniProt Q99640); settings: read-out: Percent Control
T5 construct: purchased Eurofins Discovery (DiscoverX KINOMEscan scanMAX)
Method: as §1

[6] = target: T6, ACVR1B (Homo sapiens, UniProt P36896); settings: read-out: Percent Control
T6 construct: purchased Eurofins Discovery (DiscoverX KINOMEscan scanMAX)
Method: as §1

[7] = target: T7, TGFBR1 (Homo sapiens, UniProt P36897); settings: read-out: Percent Control
T7 construct: purchased Eurofins Discovery (DiscoverX KINOMEscan scanMAX)
Method: as §1

[8] = target: T8, TNNI3K (Homo sapiens, UniProt Q59H18); settings: read-out: Percent Control
T8 construct: purchased Eurofins Discovery (DiscoverX KINOMEscan scanMAX)
Method: as §1

[9] = target: T9, PLK2 (Homo sapiens, UniProt Q9NYY3); settings: read-out: Percent Control
T9 construct: purchased Eurofins Discovery (DiscoverX KINOMEscan scanMAX)
Method: as §1

[10] = target: T10, STK33 (Homo sapiens, UniProt Q9BYT3); settings: read-out: Percent Control
T10 construct: purchased Eurofins Discovery (DiscoverX KINOMEscan scanMAX)
Method: as §1

[11] = target: T11, CAMKK1 (Homo sapiens, UniProt Q8N5S9); settings: read-out: Percent Control
T11 construct: purchased Eurofins Discovery (DiscoverX KINOMEscan scanMAX)
Method: as §1

[12] = target: T12, ADCK4 (Homo sapiens, UniProt Q96D53); settings: read-out: Percent Control
T12 construct: purchased Eurofins Discovery (DiscoverX KINOMEscan scanMAX)
Method: as §1

[13] = target: T13, RIOK1 (Homo sapiens, UniProt Q9BRS2); settings: read-out: Percent Control
T13 construct: purchased Eurofins Discovery (DiscoverX KINOMEscan scanMAX)
Method: as §1

[14] = target: T14, MAP3K15 (Homo sapiens, UniProt Q6ZN16); settings: read-out: Percent Control
T14 construct: purchased Eurofins Discovery (DiscoverX KINOMEscan scanMAX)
Method: as §1

[15] = target: T15, MRCKB (Homo sapiens, UniProt Q9Y5S2); settings: read-out: Percent Control
T15 construct: purchased Eurofins Discovery (DiscoverX KINOMEscan scanMAX)
Method: as §1

[16] = target: T16, EPHB2 (Homo sapiens, UniProt P29323); settings: read-out: Percent Control
T16 construct: purchased Eurofins Discovery (DiscoverX KINOMEscan scanMAX)
Method: as §1

[17] = target: T17, ABL1 (Homo sapiens, UniProt P00519); settings: 1000 nM; read-out: Percent Control
T17 construct: purchased Eurofins Discovery
Method: as §1

[18] = target: T18, CAMK2D (Homo sapiens, UniProt Q13557); settings: read-out: Percent Control
T18 construct: purchased Eurofins Discovery (DiscoverX KINOMEscan scanMAX)
Method: as §1

[19] = target: T19, MLCK (Homo sapiens, UniProt Q32MK0); settings: read-out: Percent Control
T19 construct: purchased Eurofins Discovery (DiscoverX KINOMEscan scanMAX)
Method: as §1

[20] = target: T20, VEGFR2 (Homo sapiens, UniProt P35968); settings: read-out: Percent Control
T20 construct: purchased Eurofins Discovery (DiscoverX KINOMEscan scanMAX)
Method: as §1

[21] = target: T21, HIPK2 (Homo sapiens, UniProt Q9H2X6); settings: read-out: Percent Control
T21 construct: purchased Eurofins Discovery (DiscoverX KINOMEscan scanMAX)
Method: as §1

[22] = target: T22, ABL1(H396P)-nonphosphorylated (Homo sapiens, UniProt P00519, H396P); settings: read-out: Percent Control
T22 construct: purchased Eurofins Discovery (DiscoverX KINOMEscan scanMAX)
Method: as §1

[23] = target: T23, KIT(V559D) (Homo sapiens, UniProt P10721, V559D); settings: read-out: Percent Control
T23 construct: purchased Eurofins Discovery (DiscoverX KINOMEscan scanMAX)
Method: as §1

[24] = target: T24, DYRK1B (Homo sapiens, UniProt Q9Y463); settings: read-out: Percent Control
T24 construct: purchased Eurofins Discovery (DiscoverX KINOMEscan scanMAX)
Method: as §1

[25] = target: T25, AMPK-alpha2 (Homo sapiens, UniProt P54646); settings: read-out: Percent Control
T25 construct: purchased Eurofins Discovery (DiscoverX KINOMEscan scanMAX)
Method: as §1

[26] = target: T26, MAPKAPK5 (Homo sapiens, UniProt Q8IW41); settings: read-out: Percent Control
T26 construct: purchased Eurofins Discovery (DiscoverX KINOMEscan scanMAX)
Method: as §1

[27] = target: T27, CSNK2A1 (Homo sapiens, UniProt P68400); settings: read-out: Percent Control
T27 construct: purchased Eurofins Discovery (DiscoverX KINOMEscan scanMAX)
Method: as §1

[28] = target: T28, ZAP70 (Homo sapiens, UniProt P43403); settings: read-out: Percent Control
T28 construct: purchased Eurofins Discovery (DiscoverX KINOMEscan scanMAX)
Method: as §1

[29] = target: T29, SIK (Homo sapiens, UniProt P57059); settings: read-out: Percent Control
T29 construct: purchased Eurofins Discovery (DiscoverX KINOMEscan scanMAX)
Method: as §1

[30] = target: T30, CDK3 (Homo sapiens, UniProt Q00526); settings: read-out: Percent Control
T30 construct: purchased Eurofins Discovery (DiscoverX KINOMEscan scanMAX)
Method: as §1

[31] = target: T31, EGFR(L858R) (Homo sapiens, UniProt P00533, L858R); settings: read-out: Percent Control
T31 construct: purchased Eurofins Discovery (DiscoverX KINOMEscan scanMAX)
Method: as §1

[32] = target: T32, NEK4 (Homo sapiens, UniProt P51957); settings: read-out: Percent Control
T32 construct: purchased Eurofins Discovery (DiscoverX KINOMEscan scanMAX)
Method: as §1

[33] = target: T33, HIPK3 (Homo sapiens, UniProt Q9H422); settings: read-out: Percent Control
T33 construct: purchased Eurofins Discovery (DiscoverX KINOMEscan scanMAX)
Method: as §1

[34] = target: T34, MEK3 (Homo sapiens, UniProt P46734); settings: read-out: Percent Control
T34 construct: purchased Eurofins Discovery (DiscoverX KINOMEscan scanMAX)
Method: as §1

T3 sequence (P42684 whole entry): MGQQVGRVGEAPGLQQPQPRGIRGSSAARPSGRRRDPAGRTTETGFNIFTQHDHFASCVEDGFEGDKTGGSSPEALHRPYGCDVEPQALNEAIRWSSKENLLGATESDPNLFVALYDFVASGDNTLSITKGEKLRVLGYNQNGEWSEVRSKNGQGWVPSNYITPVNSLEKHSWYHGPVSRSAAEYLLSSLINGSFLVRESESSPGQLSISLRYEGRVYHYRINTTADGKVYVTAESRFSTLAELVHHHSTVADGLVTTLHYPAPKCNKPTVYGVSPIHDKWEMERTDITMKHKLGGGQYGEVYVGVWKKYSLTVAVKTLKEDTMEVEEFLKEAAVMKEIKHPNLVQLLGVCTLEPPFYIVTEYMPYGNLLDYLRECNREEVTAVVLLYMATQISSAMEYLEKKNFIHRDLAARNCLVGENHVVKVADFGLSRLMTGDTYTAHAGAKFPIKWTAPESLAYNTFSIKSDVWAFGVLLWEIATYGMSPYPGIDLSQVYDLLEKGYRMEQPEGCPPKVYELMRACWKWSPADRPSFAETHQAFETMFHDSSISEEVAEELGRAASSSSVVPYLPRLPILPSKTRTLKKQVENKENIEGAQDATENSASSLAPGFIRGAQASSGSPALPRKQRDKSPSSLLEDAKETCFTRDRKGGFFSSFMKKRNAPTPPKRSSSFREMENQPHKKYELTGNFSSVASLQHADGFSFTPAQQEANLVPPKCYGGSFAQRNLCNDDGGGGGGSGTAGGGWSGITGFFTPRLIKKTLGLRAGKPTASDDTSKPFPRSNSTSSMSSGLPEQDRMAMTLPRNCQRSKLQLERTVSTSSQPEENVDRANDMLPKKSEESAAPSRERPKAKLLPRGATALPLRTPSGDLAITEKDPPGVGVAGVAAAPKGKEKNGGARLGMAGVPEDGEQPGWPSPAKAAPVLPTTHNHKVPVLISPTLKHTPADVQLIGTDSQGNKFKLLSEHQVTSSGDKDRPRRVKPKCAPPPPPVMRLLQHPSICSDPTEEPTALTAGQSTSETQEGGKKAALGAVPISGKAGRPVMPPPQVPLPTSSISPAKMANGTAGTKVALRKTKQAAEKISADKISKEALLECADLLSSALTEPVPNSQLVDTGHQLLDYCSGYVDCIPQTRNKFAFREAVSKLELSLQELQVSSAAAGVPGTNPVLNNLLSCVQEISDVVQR
T1 sequence (Q8NFD2 whole entry): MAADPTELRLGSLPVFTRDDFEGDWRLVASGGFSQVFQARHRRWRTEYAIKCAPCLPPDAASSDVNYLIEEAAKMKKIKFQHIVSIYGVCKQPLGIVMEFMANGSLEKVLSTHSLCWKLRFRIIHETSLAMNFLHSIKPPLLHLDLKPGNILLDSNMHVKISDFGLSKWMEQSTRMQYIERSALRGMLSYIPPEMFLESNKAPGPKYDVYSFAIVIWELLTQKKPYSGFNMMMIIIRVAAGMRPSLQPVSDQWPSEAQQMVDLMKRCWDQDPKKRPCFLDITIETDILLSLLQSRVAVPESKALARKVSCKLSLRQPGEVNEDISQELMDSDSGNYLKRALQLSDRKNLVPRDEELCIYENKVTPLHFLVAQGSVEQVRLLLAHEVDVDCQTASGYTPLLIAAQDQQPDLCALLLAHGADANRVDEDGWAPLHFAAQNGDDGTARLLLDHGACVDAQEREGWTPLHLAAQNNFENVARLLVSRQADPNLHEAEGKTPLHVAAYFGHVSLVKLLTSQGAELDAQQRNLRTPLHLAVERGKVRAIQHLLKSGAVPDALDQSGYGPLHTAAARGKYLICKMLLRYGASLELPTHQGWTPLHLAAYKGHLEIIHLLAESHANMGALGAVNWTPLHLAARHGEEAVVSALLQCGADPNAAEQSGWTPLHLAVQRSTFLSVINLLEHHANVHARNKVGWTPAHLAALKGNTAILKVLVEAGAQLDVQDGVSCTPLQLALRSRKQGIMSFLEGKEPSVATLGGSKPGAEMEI
T2 sequence (Q04912 25-1400): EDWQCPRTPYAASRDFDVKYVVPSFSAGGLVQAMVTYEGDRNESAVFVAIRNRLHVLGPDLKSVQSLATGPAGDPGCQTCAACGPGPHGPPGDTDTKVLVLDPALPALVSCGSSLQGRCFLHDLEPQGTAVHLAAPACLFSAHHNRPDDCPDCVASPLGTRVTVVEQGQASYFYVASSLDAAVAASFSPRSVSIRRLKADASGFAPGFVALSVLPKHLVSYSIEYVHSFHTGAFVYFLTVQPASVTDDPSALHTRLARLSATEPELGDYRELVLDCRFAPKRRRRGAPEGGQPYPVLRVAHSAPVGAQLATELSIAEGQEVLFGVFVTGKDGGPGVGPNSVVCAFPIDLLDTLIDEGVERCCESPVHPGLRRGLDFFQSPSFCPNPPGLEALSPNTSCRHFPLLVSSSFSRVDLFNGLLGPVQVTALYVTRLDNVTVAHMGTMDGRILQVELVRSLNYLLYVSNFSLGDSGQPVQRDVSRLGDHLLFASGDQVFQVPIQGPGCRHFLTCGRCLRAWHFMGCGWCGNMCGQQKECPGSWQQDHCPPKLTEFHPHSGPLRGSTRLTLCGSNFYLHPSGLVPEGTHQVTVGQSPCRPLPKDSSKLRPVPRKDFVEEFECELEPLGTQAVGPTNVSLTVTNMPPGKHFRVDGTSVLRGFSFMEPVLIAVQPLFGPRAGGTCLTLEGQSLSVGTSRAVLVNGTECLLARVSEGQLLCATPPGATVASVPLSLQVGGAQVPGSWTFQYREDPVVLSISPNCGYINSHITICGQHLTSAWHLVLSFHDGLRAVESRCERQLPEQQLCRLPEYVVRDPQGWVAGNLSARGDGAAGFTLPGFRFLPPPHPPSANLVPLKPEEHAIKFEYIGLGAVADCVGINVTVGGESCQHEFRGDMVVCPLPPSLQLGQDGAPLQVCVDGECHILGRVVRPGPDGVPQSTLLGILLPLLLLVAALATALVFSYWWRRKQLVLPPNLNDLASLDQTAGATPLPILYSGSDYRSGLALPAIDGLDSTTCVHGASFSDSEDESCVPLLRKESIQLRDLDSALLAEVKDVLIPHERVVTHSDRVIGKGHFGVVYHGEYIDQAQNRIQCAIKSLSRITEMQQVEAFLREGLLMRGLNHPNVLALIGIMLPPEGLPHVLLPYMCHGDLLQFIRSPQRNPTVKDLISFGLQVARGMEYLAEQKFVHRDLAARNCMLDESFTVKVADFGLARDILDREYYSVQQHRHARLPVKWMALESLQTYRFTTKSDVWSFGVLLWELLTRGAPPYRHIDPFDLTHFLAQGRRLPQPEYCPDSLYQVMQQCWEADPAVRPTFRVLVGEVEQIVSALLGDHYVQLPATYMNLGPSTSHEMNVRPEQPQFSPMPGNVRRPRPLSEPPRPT
T29 sequence (P57059 whole entry): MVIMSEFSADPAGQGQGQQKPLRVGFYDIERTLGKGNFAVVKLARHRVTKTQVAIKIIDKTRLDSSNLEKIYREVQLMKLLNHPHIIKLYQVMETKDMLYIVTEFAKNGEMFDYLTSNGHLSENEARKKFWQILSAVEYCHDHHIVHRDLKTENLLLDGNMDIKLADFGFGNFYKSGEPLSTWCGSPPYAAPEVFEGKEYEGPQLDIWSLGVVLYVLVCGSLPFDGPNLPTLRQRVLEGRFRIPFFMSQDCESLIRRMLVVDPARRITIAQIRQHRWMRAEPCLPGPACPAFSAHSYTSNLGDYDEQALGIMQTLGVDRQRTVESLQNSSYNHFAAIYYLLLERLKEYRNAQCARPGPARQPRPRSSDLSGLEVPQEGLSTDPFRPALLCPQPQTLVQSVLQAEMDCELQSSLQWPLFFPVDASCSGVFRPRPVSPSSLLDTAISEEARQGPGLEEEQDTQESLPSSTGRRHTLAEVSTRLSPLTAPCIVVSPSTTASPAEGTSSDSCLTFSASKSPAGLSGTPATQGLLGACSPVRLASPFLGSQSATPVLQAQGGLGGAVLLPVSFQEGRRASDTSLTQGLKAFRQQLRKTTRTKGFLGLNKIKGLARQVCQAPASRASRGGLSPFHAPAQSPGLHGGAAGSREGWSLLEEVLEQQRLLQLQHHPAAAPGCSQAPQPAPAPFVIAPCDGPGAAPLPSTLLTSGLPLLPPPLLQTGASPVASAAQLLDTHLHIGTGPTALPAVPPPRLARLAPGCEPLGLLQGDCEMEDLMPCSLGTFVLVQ
T26 sequence (Q8IW41 whole entry): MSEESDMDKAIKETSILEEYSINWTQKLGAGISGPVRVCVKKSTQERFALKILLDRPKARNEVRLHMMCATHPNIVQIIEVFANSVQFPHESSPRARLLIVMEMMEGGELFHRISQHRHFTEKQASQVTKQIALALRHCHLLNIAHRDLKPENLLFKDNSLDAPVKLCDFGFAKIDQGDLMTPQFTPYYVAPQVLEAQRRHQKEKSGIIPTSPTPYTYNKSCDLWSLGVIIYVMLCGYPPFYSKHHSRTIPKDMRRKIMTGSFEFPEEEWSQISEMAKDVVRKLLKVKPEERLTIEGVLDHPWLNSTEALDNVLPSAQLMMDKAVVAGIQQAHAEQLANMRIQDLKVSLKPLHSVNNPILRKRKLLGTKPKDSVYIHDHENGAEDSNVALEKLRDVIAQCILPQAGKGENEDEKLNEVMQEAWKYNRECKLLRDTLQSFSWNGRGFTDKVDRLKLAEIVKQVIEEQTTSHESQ
T11 sequence (Q8N5S9 whole entry): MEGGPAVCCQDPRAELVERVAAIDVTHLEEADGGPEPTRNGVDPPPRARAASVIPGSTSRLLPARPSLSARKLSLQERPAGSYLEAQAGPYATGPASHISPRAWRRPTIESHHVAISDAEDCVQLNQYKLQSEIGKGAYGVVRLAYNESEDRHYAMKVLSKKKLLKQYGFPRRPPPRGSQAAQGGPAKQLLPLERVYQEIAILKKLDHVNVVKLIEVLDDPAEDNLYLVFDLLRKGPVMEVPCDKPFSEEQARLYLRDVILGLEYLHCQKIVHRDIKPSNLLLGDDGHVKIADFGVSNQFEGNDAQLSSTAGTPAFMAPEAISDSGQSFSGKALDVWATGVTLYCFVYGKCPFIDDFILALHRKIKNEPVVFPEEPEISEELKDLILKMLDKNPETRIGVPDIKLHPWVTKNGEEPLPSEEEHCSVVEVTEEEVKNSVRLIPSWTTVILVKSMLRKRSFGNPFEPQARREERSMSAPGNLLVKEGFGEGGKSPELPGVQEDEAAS

## Cc1cc(Nc2ccc(F)c(CC3(C(=O)N4CCC(F)(CN5CCN(c6ccc(N7CCC(=O)NC7=O)cn6)CC5)CC4)CCN(Cc4cccc(Cl)c4F)CC3)n2)n[nH]1 [SK5527]
[1]; 100 nM
  remaining binding at 0.1 µM: 73%
[1]; 1000 nM
  remaining binding at 1 µM: 71%
[2]; 100 nM
  remaining binding at 0.1 µM: 100%
[2]; 1000 nM
  remaining binding at 1 µM: 100%
[3]; 100 nM
  remaining binding at 0.1 µM: 100%
[3]; 1000 nM
  remaining binding at 1 µM: 66%
[4]; 100 nM
  remaining binding at 0.1 µM: 98%
[4]; 1000 nM
  remaining binding at 1 µM: 95%
[5]; 100 nM
  remaining binding at 0.1 µM: 81%
[5]; 1000 nM
  remaining binding at 1 µM: 58%
[6]; 100 nM
  remaining binding at 0.1 µM: 100%
[6]; 1000 nM
  remaining binding at 1 µM: 100%
[7]; 100 nM
  remaining binding at 0.1 µM: 100%
[7]; 1000 nM
  remaining binding at 1 µM: 100%
[8]; 100 nM
  remaining binding at 0.1 µM: 73%
[8]; 1000 nM
  remaining binding at 1 µM: 70%
[9]; 100 nM
  remaining binding at 0.1 µM: 100%
[9]; 1000 nM
  remaining binding at 1 µM: 87%
[10]; 100 nM
  remaining binding at 0.1 µM: 100%
[10]; 1000 nM
  remaining binding at 1 µM: 97%
[11]; 100 nM
  remaining binding at 0.1 µM: 100%
[11]; 1000 nM
  remaining binding at 1 µM: 100%
[12]; 100 nM
  remaining binding at 0.1 µM: 92%
[12]; 1000 nM
  remaining binding at 1 µM: 84%
[13]; 100 nM
  remaining binding at 0.1 µM: 100%
[13]; 1000 nM
  remaining binding at 1 µM: 100%
[14]; 100 nM
  remaining binding at 0.1 µM: 100%
[14]; 1000 nM
  remaining binding at 1 µM: 81%
[15]; 100 nM
  remaining binding at 0.1 µM: 98%
[15]; 1000 nM
  remaining binding at 1 µM: 93%
[16]; 100 nM
  remaining binding at 0.1 µM: 74%
[16]; 1000 nM
  remaining binding at 1 µM: 95%
[17]
  remaining binding at 1 µM: 8.4%
[18]; 100 nM
  remaining binding at 0.1 µM: 95%
[18]; 1000 nM
  remaining binding at 1 µM: 93%
[19]; 100 nM
  remaining binding at 0.1 µM: 100%
[19]; 1000 nM
  remaining binding at 1 µM: 0%
[20]; 100 nM
  remaining binding at 0.1 µM: 85%
[20]; 1000 nM
  remaining binding at 1 µM: 65%
[21]; 100 nM
  remaining binding at 0.1 µM: 100%
[21]; 1000 nM
  remaining binding at 1 µM: 91%
[22]; 100 nM
  remaining binding at 0.1 µM: 68%
[22]; 1000 nM
  remaining binding at 1 µM: 19%
[23]; 100 nM
  remaining binding at 0.1 µM: 100%
[23]; 1000 nM
  remaining binding at 1 µM: 100%
[24]; 100 nM
  remaining binding at 0.1 µM: 98%
[24]; 1000 nM
  remaining binding at 1 µM: 74%
[25]; 100 nM
  remaining binding at 0.1 µM: 93%
[25]; 1000 nM
  remaining binding at 1 µM: 100%
[26]; 100 nM
  remaining binding at 0.1 µM: 85%
[26]; 1000 nM
  remaining binding at 1 µM: 74%
[27]; 100 nM
  remaining binding at 0.1 µM: 90%
[27]; 1000 nM
  remaining binding at 1 µM: 69%
[28]; 100 nM
  remaining binding at 0.1 µM: 97%
[28]; 1000 nM
  remaining binding at 1 µM: 100%
[29]; 100 nM
  remaining binding at 0.1 µM: 93%
[29]; 1000 nM
  remaining binding at 1 µM: 59%
[30]; 100 nM
  remaining binding at 0.1 µM: 83%
[30]; 1000 nM
  remaining binding at 1 µM: 87%
[31]; 100 nM
  remaining binding at 0.1 µM: 97%
[31]; 1000 nM
  remaining binding at 1 µM: 83%
[32]; 100 nM
  remaining binding at 0.1 µM: 72%
[32]; 1000 nM
  remaining binding at 1 µM: 65%
[33]; 100 nM
  remaining binding at 0.1 µM: 100%
[33]; 1000 nM
  remaining binding at 1 µM: 66%
[34]; 100 nM
  remaining binding at 0.1 µM: 100%
[34]; 1000 nM
  remaining binding at 1 µM: 82%
